Reference: PubChem BioAssay (NCI)
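In this assay, cells in 96-well plates receive the compound at five concentrations for 48 hours. Endpoints are linearly interpolated between the surrounding concentrations. The concentration for full growth arrest is given as TGI.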

What was measured:
Assay in all cases: NCI tumour cell line growth inhibition, 48 h
[1] = system: COLO 205 colon
[2] = system: M14 melanoma
[3] = system: DMS 114 small cell lung
[4] = system: HCT-116 colon
[5] = system: UO-31 renal
[6] = system: HOP-62 NSCLC
[7] = system: OVCAR-5 ovarian
[8] = system: CAKI-1 renal
[9] = system: MALME-3M melanoma
[10] = system: SF-295 CNS
[11] = system: SNB-78 CNS
[12] = system: NCI-H226 lung
[13] = system: RXF-631 renal
[14] = system: HL-60(TB) leukemia
[15] = system: KM20L2 colon
[16] = system: MOLT-4 leukemia
[17] = system: SK-MEL-2 melanoma
[18] = system: HOP-92 NSCLC
[19] = system: 786-0 renal
[20] = system: HT29 colon
[21] = system: NCI-H23 lung
[22] = system: HOP-18 NSCLC
[23] = system: UACC-257 melanoma
[24] = system: CCRF-CEM leukemia
[25] = system: OVCAR-4 ovarian
[26] = system: OVCAR-8 ovarian
[27] = system: NCI-H522 lung
[28] = system: SN12C renal
[29] = system: SNB-75 CNS
[30] = system: SNB-19 CNS
[31] = system: SF-268 CNS
[32] = system: ACHN renal
[33] = system: OVCAR-3 ovarian
[34] = system: SK-MEL-28 melanoma
[35] = system: HCT-15 colon
[36] = system: IGROV1 ovarian
[37] = system: HCC-2998 colon
[38] = system: A498 renal
[39] = system: KM12 colon
[40] = system: RPMI-8226 leukemia
[41] = system: SR leukemia
[42] = system: SW-620 colon
[43] = system: EKVX NSCLC
[44] = system: NCI-H460 lung
[45] = system: A549 NSCLC
[46] = system: RXF 393 renal
[47] = system: SK-OV-3 ovarian
[48] = system: TK-10 renal
[49] = system: DMS 273 small cell lung
[50] = system: SF-539 CNS
[51] = system: SK-MEL-5 melanoma
[52] = system: M19-MEL melanoma
[53] = system: LOX IMVI melanoma
[54] = system: UACC-62 melanoma
[55] = system: U251 CNS
[56] = system: XF 498 CNS
[57] = system: LXFL 529 NSCLC
[58] = system: DLD-1 colon
[59] = system: K-562 leukemia

Measured: TGI

CCOC(=O)/C(ON)=C(/CC/C(C(=O)OC)=C(\ON)C(=O)OCC)C(=O)OC
> 100 µM: all assays above

O=c1[nH]c2nc3ccccc3n2c(O)c1-c1ccccc1
> 100 µM: all assays above
